Test results taken from ChEMBL document CHEMBL1255423, “Dinitroaniline activity in Toxoplasma gondii expressing wild-type or mutant alpha-tubulin” (Antimicrob Agents Chemother, 2010).
Active and inactive are the calls of the source. No cut-off for these calls is given here.

Columns and labels:
Format in all cases: functional, organism-based
Toxoplasma gondii [1] = test: Antimicrobial activity against Toxoplasma gondii RH infected in HFF cells by plaque assay
Toxoplasma gondii [2] = test: Antimicrobial activity against Toxoplasma gondii RH containing alpha1-tubulin V4L mutation infected in HFF cells by plaque assay
Toxoplasma gondii [3] = test: Antimicrobial activity against Toxoplasma gondii RH containing alpha1-tubulin S6I mutation infected in HFF cells by plaque assay
Toxoplasma gondii [4] = test: Antimicrobial activity against Toxoplasma gondii RH containing alpha1-tubulin F24H mutation infected in HFF cells by plaque assay
Toxoplasma gondii [5] = test: Antimicrobial activity against Toxoplasma gondii RH containing alpha1-tubulin H28Q mutation infected in HFF cells by plaque assay
Toxoplasma gondii [6] = test: Antimicrobial activity against Toxoplasma gondii RH containing alpha1-tubulin L136F mutation infected in HFF cells by plaque assay
Toxoplasma gondii [7] = test: Antimicrobial activity against Toxoplasma gondii RH containing alpha1-tubulin I235L mutation infected in HFF cells by plaque assay
Toxoplasma gondii [8] = test: Antimicrobial activity against Toxoplasma gondii RH containing alpha1-tubulin I235T mutation infected in HFF cells by plaque assay
Toxoplasma gondii [9] = test: Antimicrobial activity against Toxoplasma gondii RH containing alpha1-tubulin I235V mutation infected in HFF cells by plaque assay
Toxoplasma gondii [10] = test: Antimicrobial activity against Toxoplasma gondii RH containing alpha1-tubulin T239I mutation infected in HFF cells by plaque assay
Toxoplasma gondii [11] = test: Antimicrobial activity against Toxoplasma gondii RH containing alpha1-tubulin R243C mutation infected in HFF cells by plaque assay
Toxoplasma gondii [12] = test: Antimicrobial activity against Toxoplasma gondii RH containing alpha1-tubulin R243S mutation infected in HFF cells by plaque assay
Toxoplasma gondii [13] = test: Induction of parasite microtubule disruption Toxoplasma gondii RH infected in HFF cells by antitubulin antibody staining
Toxoplasma gondii [14] = test: Induction of parasite shape change Toxoplasma gondii RH infected in HFF cells at 0.25 uM by phase contrast microscopy
Cryptosporidium parvum = test: Antimicrobial activity against Cryptosporidium parvum by short-term in vitro culture assay

| SMILES | IC50 (Toxoplasma gondii [1]) [µM] | IC50 (Toxoplasma gondii [2]) [µM] | IC50 (Toxoplasma gondii [3]) [µM] | IC50 (Toxoplasma gondii [4]) [µM] | IC50 (Toxoplasma gondii [5]) [µM] | IC50 (Toxoplasma gondii [6]) [µM] | IC50 (Toxoplasma gondii [7]) [µM] | IC50 (Toxoplasma gondii [8]) [µM] | IC50 (Toxoplasma gondii [9]) [µM] | IC50 (Toxoplasma gondii [10]) [µM] | IC50 (Toxoplasma gondii [11]) [µM] | IC50 (Toxoplasma gondii [12]) [µM] | Activity (Toxoplasma gondii [13]) | Activity (Toxoplasma gondii [14]) | IC50 (Cryptosporidium parvum) [µM] |
| --- | --- | --- | --- | --- | --- | --- | --- | --- | --- | --- | --- | --- | --- | --- | --- |
| CCCN(CCC)c1c([N+](=O)[O-])cc(S(=O)(=O)Nc2ccccc2)cc1[N+](=O)[O-] | 6.7 | 26.2 | 12.4 | 17.2 | 12.4 | 9.7 | 7.7 | 16.9 | 4.7 | 17.1 | 17 | 13.3 | – | – | – |
| COP(=S)(NC(C)C)Oc1ccc(C)cc1[N+](=O)[O-] (centres undefined) [AMIPROPHOS METHYL] | 1 | 2.1 | 3.3 | 10 | 5.1 | 28.5 | 3.9 | 7.1 | 1.5 | 28.5 | 5.9 | 19.1 | – | – | – |
| CCCCN(CC)c1c([N+](=O)[O-])cc(C(F)(F)F)cc1[N+](=O)[O-] [BENFLURALIN] | 1.5 | 18.8 | 7.4 | 15.7 | 15.2 | 27.7 | 4.6 | 9.3 | 3.7 | 22.9 | 12 | 21.7 | – | – | – |
| CCC(C)Nc1c([N+](=O)[O-])cc(C(C)(C)C)cc1[N+](=O)[O-] (centres undefined) [BUTRALIN] | 1.8 | 32.1 | 4.5 | 24.2 | 10.2 | 32 | 9.1 | 7.4 | 3.8 | 28.7 | 12.8 | 25.1 | – | – | – |
| CCN(CC)c1c([N+](=O)[O-])cc(C(F)(F)F)c(N)c1[N+](=O)[O-] [DINITRAMINE] | 0.045 | 3.4 | 0.42 | 0.37 | 0.51 | 12.5 | 0.32 | 0.32 | 0.089 | 26.6 | 0.33 | 18.4 | Active | Active | – |
| C=C(C)CN(CC)c1c([N+](=O)[O-])cc(C(F)(F)F)cc1[N+](=O)[O-] [ETHALFLURALIN] | 0.26 | 13.5 | 2.5 | 2.1 | 4.2 | 24 | 1.4 | 1.7 | 0.65 | 28.7 | 1.6 | 19.5 | – | – | – |
| CCCN(CCCl)c1c([N+](=O)[O-])cc(C(F)(F)F)cc1[N+](=O)[O-] [FLUCHLORALIN] | 0.33 | 8 | 1.9 | 3.2 | 1.6 | 22.2 | 1 | 2.1 | 0.77 | 20.5 | 2.2 | 17.7 | – | – | 1.81 |
| CCCN(CCC)c1c([N+](=O)[O-])cc(C(C)C)cc1[N+](=O)[O-] [ISOPROPALIN] | 0.88 | 7 | 2.2 | 3.5 | 3.4 | 15 | 2.2 | 4.3 | 2.2 | 15 | 4 | 13.5 | – | – | – |
| CCCN(CCC)c1c([N+](=O)[O-])cc(S(C)(=O)=O)cc1[N+](=O)[O-] [NITRALIN] | 0.5 | 19.2 | 2.1 | 3.7 | 1.8 | 31.3 | 2.1 | 4.9 | 1.6 | 30.3 | 4.3 | 23.9 | – | – | 4.5 |
| CCCN(CCC)c1c([N+](=O)[O-])cc(S(N)(=O)=O)cc1[N+](=O)[O-] [ORYZALIN] | 0.25 | 14.7 | 1.5 | 1.26 | 1.4 | 27.7 | 1.6 | 5.5 | 2.3 | 25.3 | 2.2 | 16 | – | – | 0.7 |
| CCC(CC)Nc1c([N+](=O)[O-])cc(C)c(C)c1[N+](=O)[O-] [PENDIMETHALIN] | 0.26 | 3.2 | 0.75 | 3.2 | 2.5 | 13.2 | 1 | 0.71 | 0.34 | 12.2 | 1.1 | 9.7 | – | – | 0.19 |
| CCCN(CC1CC1)c1c([N+](=O)[O-])cc(C(F)(F)F)cc1[N+](=O)[O-] [PROFLURALIN] | 0.61 | 8.2 | 2.6 | 4.3 | 2.8 | 21.2 | 1.5 | 3.9 | 1.5 | 22.1 | 3.2 | 20.4 | – | – | 1.9 |
| CCCN(CCC)c1c([N+](=O)[O-])cc(C(F)(F)F)cc1[N+](=O)[O-] [TRIFLURALIN] | 0.52 | 13.8 | 2.8 | 4.2 | 5.3 | 27 | 1.9 | 5.1 | 1.8 | 23.4 | 4.1 | 23.3 | – | – | 1.94 |
